Assay results published in US20020155562A1, “Glutathionylspermidine synthetase and processes for recovery and use thereof” (Leopold Flohe, priority 1996, published 2002).

Key:
[1] = biological target: glutathionylspermidine synthetase (GspS); test: Kinetic analysis of GspS by HPLC determination of the product Gsp; assay type: biochemical, C. fasciculata; conditions: 25.0° C.; for Ki: pH 7.5; for Km: substrates of GspS, rapid equilibrium random-order mechanism, pH 7.5, 5 mM magnesium, read-out: limiting Km (dissociation constant of the quarternary complex)
Procedure: Production of starting material: C. fasciculata was grown in a medium previously described (27) in a 100-1 fermenter at 27° C. with continuous stirring (200 rpm) and aeration (0.1 vvm). Organisms were harvested in the late logarithmic growth phase by continous flow centrifugation. The pellet was resuspended with 100 mM HEPES buffer (pH 7.5) containing 1 mM DTT and 1 mM MgSO4. After centrifugation the cells were stored at −20° C. GspS, Assay: The assays were carried out at 25.0° C. in a volume of 0.9 ml containing 50 mM Bis-Tris-propane, 50 mM Tris, pH 7.5, 5 mM MgSO4, 1 mM EDTA, 5 mM DTT, 5 mM ATP, 10 mM GSH, and 10 mM spermidine (1). The assay for TS was carried out as described by Smith et al. (1). Aliquots were taken after 20 min. For thiol analysis a precolumn derivatization with the fluorescent thiol-specific reagent, monobromobimane (Calbiochem), was used as described previously (2). All samples for HPLC analysis were diluted four-fold with water. Separation and analytical conditions were as described previously (28). HPLC-analysis was performed with a Jasco-HPLC-system consisting of an autosampler (851-AS), a pump (PU-980), a ternary gradient unit (LG-980-02), and a highly sensitive fluorescence detector (FP-920), which enabled a precise analysis of the small product peak in the presence of numerous other and larger ones. An external standard (0.04 mM Gsp) was used for integration calibration of the samples.
All kinetic experiments were carried out at 25.0° C. in a volume of 0.9 ml containing 50 mM Bis-Tris-propane, 50 mM Tris, pH 7.5, 1 mM EDTA, 5 mM DTT and variable concentrations of ATP (0.10, 0.13, 0.18, 0.28, 0.66 mM ATP), GSH (0.36, 0.47, 0.66, 1.11, 3.57 mM GSH), and spermidine (0.36, 0.47, 0.66, 1.11, 3.57 mM spermidine), respectively. The enzymatic tests for kinetic studies except the ADP inhibition studies were performed in the presence of phosphoenolpyruvate (10 mM) and pyruvate kinase (0.5 units). A fixed magnesium concentration of 5 mM and a GspS content of 0.072 mg (0.923 μM) was used. Aliquots were taken at 15 min and 30 min. GspS activity was analyzed by product determination as described in example 1.

[2] = tested on: glutathionylspermidine synthetase (GspS); test: Malachite green colorimetric assay for liberation of inorganic phosphate; assay type: biochemical, C. fasciculata; conditions: ADP 0-10 mM at ATP 0.2-5 mM; competitive with respect to ATP
Procedure: FIG. 9. Malachite green colorimetric assay for liberation of inorganic phosphate. The malachite green calorimetric assay for liberation of inorganic phosphate (1) was used for fast detection of GspS activity.
The standard assay was carried out at 25.0° C. in a volume of 0.15 ml containing 50 mM Bis-Tris-propane, 50 mM Tris, pH 7.5, 5 mM MgSO4, 1 mM EDTA, 5 mM DTT, 5 mM ATP, 10 mM GSH, 10 mM spermidine, and GspS. After an incubation of 10 min the malachite green reagent was added for detection of GspS activity.
Concentration of ATP (see heading) and ADP (see table).
The liberation of inorganic phosphate from ATP can be easily visualized by malachite green (FIG. 9). The test is amply used to monitor ATP hydrolyzing activities and is correspondingly unspecific. […] This finding enabled us to use this fast and convenient test to measure specifically GspS activity which is accompanied by release of inorganic phosphate from ATP in the presence of glutathione, spermidine, and magnesium ions. The test can be easily adapted to mass screening as outlined below.

Molecule	Km [1] [µM]	also measured
Nc1ncnc2c1ncn2[C@@H]1O[C@H](COP(=O)(O)OP(=O)(O)O)[C@@H](O)[C@H]1O [ADP]	–	Ki ([1]; inhibition of GspS, competitive with respect to ATP, no ATP regenerating system): 80 µM; inhibition of GspS [2]: significantly inhibits
N[C@@H](CCC(=O)N[C@@H](CS)C(=O)NCC(=O)O)C(=O)O [GSH, glutathione]	2510 ± 330	–
N[C@@H](CCC(=O)N[C@@H](CS)C(=O)NCC(=O)NCCCCNCCCNC(=O)CNC(=O)[C@H](CS)NC(=O)CC[C@H](N)C(=O)O)C(=O)O [TSH, N^1, N^8-bis(glutathionyl)spermidine]	–	Ki ([1]; feed-back inhibition of GspS, competed by GSH): 480 µM
NCCCCNCCCN [spermidine]	470 ± 90	–
adenosyltriphosphate [Mg^2+-ATP]	250 ± 20	–
